Experimental data as given in PMC5805748 (2018).
One block for each molecule: values may come before it.

Legend:
[1] = tested on: BCL-2Mid-D (DNA, G4) GGGCGCGGGAGGAATTGGGCGGG; test: native PAGE post-staining; settings: 20 μM ThT-E stain; band seen
[2] = tested on: Insulin a2-D (DNA, G4) ACAGGGGTGTGGGGACAGGGGTGTGGGG; test: native PAGE post-staining; settings: 20 μM ThT-E stain; band seen
[3] = tested on: 45Ag-D (DNA, G4) GGGTTAGGGTTAGGGTTAGGGTTAGGGTTAGGGTTAGGGTTAGGG; test: fluorescence light-up; settings: K+ 40 mM; 20 mM Tris-HCl, pH 7.4; 2 μM ThT-E, 2 μM DNA; 146-fold
[4] = tested on: 22Ag-D (DNA, G4) AGGGTTAGGGTTAGGGTTAGGG; test: ITC; settings: K+ 40 mM; 20 mM Tris-HCl, pH 7.4; 500 μM ligand into 25 μM DNA
[5] = tested on: 19AT-D (DNA, duplex) ACGTCGATTATAGACGAGC/GCTCGTCTATAATCGACGT; test: native PAGE post-staining; settings: 20 μM ThT-E stain; no band; fluorescence rise below 3-fold
[6] = tested on: ERSI-D (DNA, G4) GGGTAGGGGCAAAGGGGCTGGGG; test: ITC; settings: K+ 40 mM; 20 mM Tris-HCl, pH 7.4; 500 μM ligand into 25 μM DNA
[7] = tested on: c-myc-D (DNA, G4) TGAGGGTGGGTAGGGTGGGTAA; test: 1H NMR titration; settings: K+ 40 mM; phosphate buffer, pH 7.4, 25 °C; stacks on 5'-end G-tetrad
[8] = tested on: c-myc-D (DNA, G4) TGAGGGTGGGTAGGGTGGGTAA; test: UV-vis titration; settings: 2 μM ThT-E, 0 to 8 μM DNA; 23 nm red shift
[9] = tested on: ssAf17-D (DNA, single strand) CTGAGTTGTATATATTCG; test: native PAGE post-staining; settings: 20 μM ThT-E stain; no band; 2.77-fold fluorescence
[10] = tested on: Bulges-TB1 (DNA, G4) TTGTGGTGGGTGGGTGGGT; test: fluorescence light-up; settings: K+ 40 mM; 20 mM Tris-HCl, pH 7.4; 2 μM ThT-E; 46.05-fold
[11] = tested on: G-tripl-D (DNA, other) GGTTGGTGTGG; test: native PAGE post-staining; settings: 20 μM ThT-E stain; no band
[12] = tested on: TBA-D (DNA, G4) GGTTGGTGTGGTTGG; test: fluorescence light-up; settings: K+ 40 mM; 20 mM Tris-HCl, pH 7.4; 2 μM ThT-E, 2 μM DNA
[13] = tested on: ADAM10-D (DNA, G4) GGGGGACGGGTAGGGGCGGGAGGTAGGGG; test: fluorescence light-up; settings: K+ 40 mM; 20 mM Tris-HCl, pH 7.4; 2 μM ThT-E, 2 μM DNA; 159-fold
[14] = tested on: VAV1-D (DNA, G4) GGGCAGGGAGGGAACTGGG; test: ITC; settings: K+ 40 mM; 20 mM Tris-HCl, pH 7.4; 500 μM ligand into 25 μM DNA
[15] = tested on: B-raf-D (DNA, G4) GGGCGGGGAGGGGGAAGGGA; test: fluorescence light-up; settings: K+ 40 mM; 20 mM Tris-HCl, pH 7.4; 2 μM ThT-E, 2 μM DNA
[16] = tested on: 21CTA-D (DNA, G4) GGGCTAGGGCTAGGGCTAGGG; test: native PAGE post-staining; settings: 20 μM ThT-E stain; band seen
[17] = tested on: 32 Kras-D (DNA, G4) AGGGCGGTGTGGGAAGAGGGAAGAGGGGGAGG; test: fluorescence light-up; settings: K+ 40 mM; 20 mM Tris-HCl, pH 7.4; 2 μM ThT-E, 2 μM DNA; 125-fold
[18] = tested on: dx12-D (DNA, duplex) GCGTGAGTTCGG/CCGAACTCACGC; test: native PAGE post-staining; settings: 20 μM ThT-E stain; no band
[19] = tested on: CT4-D (DNA, G4) GGGCTTTTGGGC; test: fluorescence light-up; settings: K+ 40 mM; 20 mM Tris-HCl, pH 7.4; 2 μM ThT-E, 2 μM DNA
[20] = tested on: 35B1(Kras)-D (DNA, G4) AGGGCGGTGTGGGAAGAGGGAAGAGGGGGAGGCAG; test: CD titration; settings: no added salt; 20 mM Tris-HCl, pH 7.4; 0 to 30 μM ThT; induces parallel G4
[21] = tested on: 32 Kras-D (DNA, G4) AGGGCGGTGTGGGAAGAGGGAAGAGGGGGAGG; test: CD titration; settings: no added salt; 20 mM Tris-HCl, pH 7.4; 0 to 30 μM ThT; induces parallel G4

binding [1]: yes | binding [2]: yes | binding [3]: yes | dissociation constant [4]: 17.78 µM | binding [5]: no | dissociation constant [6]: 56.81 µM | binding [7]: yes | binding [8]: yes | binding [9]: no | binding [10]: yes | binding [11]: no | binding [12]: weak | binding [13]: yes | dissociation constant [14]: 74.73 µM | binding [15]: yes | binding [16]: yes | binding [17]: yes | binding [18]: no | binding [19]: weak
SMILES: CCN(CC)c1ccc(-c2sc3cc(C)ccc3[n+]2CC)cc1

dissociation constant [4]: 22.03 µM | dissociation constant [6]: 233.4 µM | binding [20]: yes | binding [21]: yes | dissociation constant [14]: 334.4 µM
SMILES: Cc1ccc2c(c1)sc(-c1ccc(N(C)C)cc1)[n+]2C
